The values that follow come from patent publication US20050119289A1 (priority 2002, published 2005).

In brackets after ≈: the same amount, converted by molar mass. Read-outs that look alike come from different tables or passages of the source.

Data set [1] addresses T1, rA1 adenosine receptor (Rattus norvegicus, UniProt P25099).
T1 sequence (P25099 1-326): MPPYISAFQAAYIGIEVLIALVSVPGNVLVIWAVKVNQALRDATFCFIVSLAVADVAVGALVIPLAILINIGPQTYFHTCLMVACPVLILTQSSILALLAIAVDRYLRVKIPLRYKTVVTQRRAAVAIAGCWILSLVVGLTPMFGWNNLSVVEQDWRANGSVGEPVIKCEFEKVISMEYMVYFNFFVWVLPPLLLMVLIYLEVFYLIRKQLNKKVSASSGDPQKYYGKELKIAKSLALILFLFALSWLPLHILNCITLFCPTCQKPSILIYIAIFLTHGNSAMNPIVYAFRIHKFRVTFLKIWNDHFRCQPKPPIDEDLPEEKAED
The experiment in a line: Binding affinity at rA1 adenosine receptors.

Data set [2] deals with rA2A adenosine receptor (Rattus norvegicus, UniProt P30543). Briefly: Binding affinity at rA2A adenosine receptors.
Sequence of rA2A adenosine receptor (P30543 whole entry): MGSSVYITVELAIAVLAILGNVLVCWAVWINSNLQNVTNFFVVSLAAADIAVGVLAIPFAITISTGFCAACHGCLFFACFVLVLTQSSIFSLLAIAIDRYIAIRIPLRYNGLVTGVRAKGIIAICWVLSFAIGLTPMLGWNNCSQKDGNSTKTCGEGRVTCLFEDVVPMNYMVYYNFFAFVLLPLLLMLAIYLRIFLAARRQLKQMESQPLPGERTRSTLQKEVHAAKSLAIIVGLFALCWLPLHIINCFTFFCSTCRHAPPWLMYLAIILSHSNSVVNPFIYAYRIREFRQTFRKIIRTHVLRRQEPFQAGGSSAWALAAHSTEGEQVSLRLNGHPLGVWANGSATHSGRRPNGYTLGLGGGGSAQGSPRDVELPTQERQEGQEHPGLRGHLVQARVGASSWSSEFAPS
Data set [3] has as its system human colon carcinoma HT29 cell line. Briefly: MTT growth inhibitory assay, HT29. Type of data set: cell-based. The settings on record: Homo sapiens, HT-29, HT29 cells, read-out: IC50 of anti-neoplastic agent used jointly with A3 antagonist. An excerpt:
(§1) The cells are sub-cultured twice a week.

The subject of data set [4] is human melanoma A375 cell line.
Method: (§5) For chemotherapeutic enhancement testing, the human melanoma A375, human lung carcinoma SKMES, colon carcinoma HT29, and pancreatic cancer Panc-1 cell lines were originally obtained from the ATCC (American Type Culture Collection) and have been maintained at PRC. […] The cells are cultured in a T25 Falcon Tissue Culture flask in a humidified incubator at 37° C. with 5% CO2-95% air. The cells are sub-cultured twice a week. The doubling times of A375, SKMES, HT29, and Panc-1 cultures are approximately 22, 46, 48, and 60 hr, respectively.
(§6) One of the growth inhibitory assays is the MTT assay. Cells (1000-1500 cells/well) are seeded in a 96-well micro culture plate in a total volume of 100 μl/well. After overnight incubation in a humidified incubator at 37° C. with 5% CO2-95% air, chemotherapeutic drug solutions diluted with culture medium at various concentrations are added in the amount of 100 μl to each well. The plates are placed in a humidified incubator at 37° C. with 5% CO2-95% air for 7-10 days. The plates are then centrifuged briefly and 100 μl of the growth medium is removed. Cell cultures are incubated with 50 μl of MTT [3-(4,5-dimethylthiazol-2-yl)-2,5-diphenyl-tetrazolium bromide] reagent (1 mg/ml in Dulbecco's phosphate-buffered saline) for 4 hr at 37° C. The resultant purple formazan precipitate is solubilized with 200 μl of 0.04 N HCl in isopropanol. Absorbance is measured at a wavelength of 595 nm and at a reference wavelength of 655 nm using a Bio-Rad Model 3550 Microplate Reader. Preferably, all tests are run in duplicate for each dose level.
(§7) The EZED50 computer program estimates the concentration of agent that inhibits cell growth by 50% as compared to the control cells. This is termed the IC50 and is determined by curve fitting test data using the following four logistic equation.
(§8) Inhibitory assay testing is also used to determine enhanced therapeutic effects from combining A3 receptor antagonists with other tumor inhibiting agents. The inhibitory cell growth assays are run with and without selected concentrations of A3 receptor antagonists. An enhanced therapeutic effect is present when the IC50 of the tumor inhibiting agent is lower with the A3 receptor antagonist.
(§9) Quantitatively, the enhancement factor (EF) is calculated by dividing the IC50 value of the tumor inhibiting agent for a tumor cell line by the IC50 value of the agent with A3 receptor antagonist for the same cell line: [formula]
The test system of data set [5] is human melanoma A375 cell line. The experiment in a line: MTT growth inhibitory assay, A375.
Method: as §5, §6, §7, §8, §9
For data set [6] the following is noted: docetaxel administered at 100 mg/m^2; cited from earlier work.
Data set [7] relates to human pancreatic cancer Panc-1 cell line. Briefly: MTT growth inhibitory assay, Panc-1. It counts as cell-based. The settings on record: PANC-1, Panc-1 cells, read-out: IC50 of anti-neoplastic agent used jointly with A3 antagonist. In general terms: Tetrazolium assays rely on reduction of a dye to a coloured formazan, in cell work by metabolically active cells.
Method: as §5, §6, §7, §8, §9
The subject of data set [8] is human lung carcinoma SKMES cell line. Briefly: MTT growth inhibitory assay, SKMES. Type of data set: cell-based. The settings on record: SKMES cells, read-out: IC50 of anti-neoplastic agent used jointly with A3 antagonist.
From the text: as §1

In data set [9] the test system is A375 cells. The experiment in a line: Flow cytometry analysis of G2/M accumulation and sub-G1 apoptosis, A375. Type of data set: cell-based, human. The settings on record: for EC50: Homo sapiens, A-375. As for the experimental part: (§2) A375 and NCTC2544 adherent cells were trypsinized, mixed with floating cells, washed with PBS and permeabilised in 70% (vol/vol) ethanol/PBS solution at 4° C. for at least 24 hours. Jurkat, HeL023 and PBMC cells were centrifuged for 10 minutes at 1000×g. The cell pellet was then resuspended and permeabilised in 70% (vol/vol) ethanol/PBS solution at 4° C. for at least 24 hours. The cells were washed with PBS and the DNA was stained with a PBS solution, containing 20 μg/ml of propidium iodide and 100 μg/ml of RNAse, at room temperature for 30 minutes. Cells were analysed by FACScan (Becton-Dickinson) and the content of DNA was evaluated by the Cell-LISYS program (Becton-Dickinson). Cell distribution among cell cycle phases and apoptotic cells was evaluated as previously described (Secchiero et al., 2001). Briefly, the cell cycle distribution is shown as the percentage of cells containing 2n (G1 phase), 4n (G2 and M phases), 4n>x>2n. DNA amount (S phase) judged by propidium iodide staining. The apoptotic population is the percentage of cells with DNA content lower than 2n.
Cell proliferation and apoptosis are quantified by flow cytometer analysis after propidium-iodide (PI) DNA staining. At 24 hours post-exposure, paclitaxel and vindesine induced a dose dependent cell accumulation into G2/M cell cycle phases and a parallel decrease of the G1 population.
(§3) EC50 values were obtained by analysing G2/M accumulation dose response curve. ECMAXvalues were obtained by analysing sub-G1 accumulation dose response curve. Paclitaxel values have units of ng/ml. Vindesine values have units of nM. nd: not done.
In general terms: In flow cytometry, cells or beads pass a laser one at a time.

The test system of data set [10] is HeL023 cells. Briefly: Flow cytometry analysis of G2/M accumulation and sub-G1 apoptosis, HeL023. It counts as cell-based, human. The settings on record: for EC50: Homo sapiens. As for the experimental part: as §2
(§4) To verify the role of A3 receptor antagonists on paclitaxel and vindesine mediated alteration of cell proliferation and apoptosis, testing was performed with additional cell lines. […] Experimental conditions are similar to those for the A375 cell testing.
as §3

The test system of data set [11] is Jurkat cells. Briefly: Flow cytometry analysis of G2/M accumulation and sub-G1 apoptosis, Jurkat. Type of data set: cell-based, human. The settings on record: for EC50: Homo sapiens. As for the experimental part:
as §2, §4, §3

For data set [12], the system named is NCTC2544 cells. The experiment in a line: Flow cytometry analysis of G2/M accumulation and sub-G1 apoptosis, NCTC 2544. Type of data set: cell-based, human. The settings on record: for EC50: Homo sapiens, NCTC-2544, NCTC 2544; for ECMAX (sub-G1 accumulation): NCTC 2544. As for the experimental part:
as §2, §4, §3

For data set [13], the system named is PBMC blasts. The experiment in a line: Flow cytometry analysis of G2/M accumulation, PBMC. It counts as cell-based. Particulars: Homo sapiens, vindesine with MRE3008F20 10 μM.
Method: For multi-drug resistance testing, A375 and NCTC2544 cells are grown adherently and maintained in DMEM and EMEM medium, respectively, containing 10% fetal calf serum, penicillin (100 U/ml), streptomycin (100 μg/ml), L-glutamine (2 mM) at 37° C. in 5% CO2/95% air. HeL023 and Jurkat were grown in RPMI-1640 medium, containing 10% fetal calf serum, penicillin (100 U/ml), streptomycin (100 μg/ml), L-glutamine (2 mM) at 37° C. in 5% CO2/95% air. Cells are passaged two or three times weekly at a ratio between 1:5 and 1:10. Lymphocytes were isolated from buffy coats kindly provided by the Blood Bank of the University Hospital of Ferrara. Blood donated by healthy volunteers, after informed consent for research was obtained. Lymphocytes were isolated by density gradient centrifugation (Ficoll/Histopaque 1.077 g/ml). […]
A375 and NCTC2544 adherent cells were trypsinized, mixed with floating cells, washed with PBS and permeabilised in 70% (vol/vol) ethanol/PBS solution at 4° C. for at least 24 hours. […] Cells were analysed by FACScan (Becton-Dickinson) and the content of DNA was evaluated by the Cell-LISYS program (Becton-Dickinson). Cell distribution among cell cycle phases and apoptotic cells was evaluated as previously described (Secchiero et al., 2001). […]
Setting [14] is: A-375, read-out: IC50 of anti-neoplastic agent used jointly with A3 antagonist, A375 cells, with IL-10 0.5 μg/ml.
Setting [15] is: A-375, read-out: IC50 of anti-neoplastic agent used jointly with A3 antagonist, A375 cells, with IL-10 5 μg/ml.
[16] abbreviates: A-375, read-out: IC50 of anti-neoplastic agent used jointly with A3 antagonist, A375 cells, with IL-10 […].
[17] abbreviates: A-375, read-out: IC50 of anti-neoplastic agent used jointly with A3 antagonist, A375 cells, with IL-11 0.5 μg/ml.
Where [18] appears, read: A-375, read-out: IC50 of anti-neoplastic agent used jointly with A3 antagonist, A375 cells, with IL-11 5 μg/ml.
[19] abbreviates: A-375, read-out: IC50 of anti-neoplastic agent used jointly with A3 antagonist, A375 cells, with MRE3008F20 1 μg/ml.
Where [20] appears, read: A-375, read-out: IC50 of anti-neoplastic agent used jointly with A3 antagonist, A375 cells, with MRE3008F20 3 μg/ml.
Setting [21] is: A-375, read-out: IC50 of anti-neoplastic agent used jointly with A3 antagonist, A375 cells, with MRE3008F20 10 μg/ml.
[22] abbreviates: paclitaxel with MRE3008F20 10 μM.
The mark [23] stands for this setting: vindesine with MRE3008F20 10 μM.

What is called Ki is a measure of affinity in units of concentration, obtained from inhibition or displacement. High values mean weaker binding, low ones tighter binding. As to `CN(C)c1ccc(NC(=O)Nc2nc3nn(C)cc3c3nc(-c4ccco4)nn23)cc1` [IL-11, N-1-(4-dimethylamino-phenyl)-N′-5-[8-methyl-2-(2-furyl)-pyrazolo[4,3-e]1,2,4-triazolo[1,5-c]pyrimidine]-urea], the Ki in data set [1] and in data set [2] was over 10000 nM throughout.
`CC(=O)O[C@@]12CO[C@@H]1C[C@H](O)[C@@]1(C)C(=O)[C@H](O)C3=C(C)[C@@H](OC(=O)[C@H](O)[C@@H](NC(=O)OC(C)(C)C)c4ccccc4)C[C@@](O)([C@@H](OC(=O)c4ccccc4)[C@H]21)C3(C)C` [docetaxel]: the IC50 was 0.0033 ng/mL (≈ 0.00408 nM) in [3] (with IL-10 0.5 μg/ml); 0.0028 ng/mL (≈ 0.00347 nM) in data set [3] (with IL-11 0.5 μg/ml); 0.0012 ng/mL (≈ 0.00149 nM) in [3] (with MRE3008F20 1 μg/ml); 0.005 ng/mL (≈ 0.00619 nM) in [4]; 0.0025 ng/mL (≈ 0.00309 nM) in [5] (setting [14]); 0.0072 ng/mL (≈ 0.00891 nM) in data set [5] (setting [15]). The IC50 in data set [5] (setting [16]) worked out at 0.0023 ng/mL (≈ 0.00285 nM); in [5] (setting [17]), 0.0087 ng/mL (≈ 0.0108 nM); in data set [5] (setting [18]), 0.0071 ng/mL (≈ 0.00879 nM); in [5] (setting [19]) it was 0.0006 ng/mL (≈ 0.000743 nM); in [5] (setting [20]), 0.0055 ng/mL (≈ 0.00681 nM); in [5] (setting [21]), 0.0072 ng/mL (≈ 0.00891 nM). For the same molecule, the IC50 in [7] (with IL-10 0.5 μg/ml) turned out to be 0.47 ng/mL (≈ 0.582 nM); in data set [7] (with IL-11 0.5 μg/ml) it was 0.5 ng/mL (≈ 0.619 nM); in data set [7] (with MRE3008F20 1 μg/ml), 0.38 ng/mL (≈ 0.47 nM); in data set [8] (with IL-10 0.5 μg/ml) it was 0.17 ng/mL (≈ 0.21 nM); in [8] (with IL-11 0.5 μg/ml) it was 0.25 ng/mL (≈ 0.309 nM); in [8] (with MRE3008F20 1 μg/ml), 0.13 ng/mL (≈ 0.161 nM). The “acute hypersensitivity reaction, patients” value in [6] was 13%. Moreover, in data set [6], the “severe hypersensitivity reaction, patients” value is on record as 1.2%.
As a reminder, the EC50 is the concentration giving half of the maximal effect. A high value points to lower potency in that assay. As for `CC(=O)O[C@H]1C(=O)[C@@]2(C)[C@H]([C@H](OC(=O)c3ccccc3)[C@]3(O)C[C@H](OC(=O)[C@H](O)[C@@H](NC(=O)c4ccccc4)c4ccccc4)C(C)=C1C3(C)C)[C@]1(OC(C)=O)CO[C@@H]1C[C@@H]2O` [paclitaxel], the IC50 in data set [3] (with IL-10 0.5 μg/ml) was found to be 1 ng/mL (≈ 1.17 nM); in data set [3] (with IL-11 0.5 μg/ml), 0.99 ng/mL (≈ 1.16 nM); in [3] (with MRE3008F20 1 μg/ml), 0.85 ng/mL (≈ 0.995 nM); in data set [4], 0.67 ng/mL (≈ 0.785 nM); in data set [5] (setting [14]), 1.2 ng/mL (≈ 1.41 nM); in [5] (setting [15]), 0.5 ng/mL (≈ 0.586 nM). Besides, the IC50 in data set [5] (setting [16]) turned out to be 0.61 ng/mL (≈ 0.714 nM); in data set [5] (setting [17]) it was 1.4 ng/mL (≈ 1.64 nM); in [5] (setting [18]) it was 0.4 ng/mL (≈ 0.468 nM); in data set [5] (setting [19]), 0.59 ng/mL (≈ 0.691 nM); in data set [5] (setting [20]) it was 0.66 ng/mL (≈ 0.773 nM); in [5] (setting [21]), 0.54 ng/mL (≈ 0.632 nM). Moreover, the IC50 in data set [5] (A-375, read-out: IC50 of paclitaxel plus MRE3008F20, IL-10, and IL-11, A375, with 10 μg/ml of MRE3008F20 or 5 μg/ml of IL-10 or IL-11) is 0.4 to 0.54 ng/mL; in [7] (with IL-10 0.5 μg/ml), 1.7 ng/mL (≈ 1.99 nM); in data set [7] (with IL-11 0.5 μg/ml) it was 1.6 ng/mL (≈ 1.87 nM); in data set [7] (with MRE3008F20 1 μg/ml) it was 1.5 ng/mL (≈ 1.76 nM); in [8] (with IL-10 0.5 μg/ml), 1.2 ng/mL (≈ 1.41 nM); in data set [8] (with IL-11 0.5 μg/ml), 0.78 ng/mL (≈ 0.913 nM). The IC50 in data set [8] (with MRE3008F20 1 μg/ml) stood at 0.8 ng/mL (≈ 0.937 nM). The “percentage of apoptotic cells, maximum value” in data set [9] (A375, paclitaxel at 5 ng/ml, range on different experiments) is reported as 35 to 53%. The “ECMAX, concentration exerting the maximal apoptosis (sub-G1)” value in data set [9] (A375, paclitaxel with MRE3008F20 10 μM) stood at 3.04 ± 0.32 ng/mL; in data set [9] (A375, paclitaxel, DMSO (no antagonist)) it was 6.00 ± 0.63 ng/mL. The “EC50, G2/M accumulation” value in data set [9] (A375, paclitaxel, DMSO (no antagonist), 24 hours) stood at 16.60 ± 2.00 ng/mL (≈ 19.4 nM). In addition, the EC50 in data set [9] was 8.6 ± 0.81 ng/mL; in [10] (setting [22]) it was 4.1 ± 0.4 ng/mL; in [11] (setting [22]) it was 2.52 ± 0.3 ng/mL; in [12] (setting [22]) it was 2.41 ± 0.3 ng/mL. In addition, the “ECMAX (sub-G1 accumulation)” value stood at 3.19 ± 0.30 ng/mL in data set [10] (setting [22]), 2.29 ± 0.31 ng/mL in data set [11] (setting [22]) and 2.55 ± 0.24 ng/mL in [12] (setting [22]).
With `CC[C@]1(O)C[C@@H]2CN(CCc3c([nH]c4ccccc34)[C@@](C(=O)OC)(c3cc4c(cc3OC)N(C)[C@H]3[C@@](O)(C(N)=O)[C@H](O)[C@]5(CC)C=CCN6CC[C@]43[C@@H]65)C2)C1` [vindesine], the “ECMAX, concentration exerting the maximal apoptosis (sub-G1)” value in [9] (A375, vindesine with MRE3008F20 10 μM) is on record as 1.66 ± 0.20 nM. In addition, the EC50 in data set [9] worked out at 0.48 ± 0.05 nM; in data set [10] (setting [23]) it was 0.71 ± 0.08 nM; in data set [11] (setting [23]), 0.37 ± 0.04 nM; in data set [12] (setting [23]), 0.51 ± 0.06 nM; in data set [13] it was 0.86 ± 0.09 nM. The “ECMAX (sub-G1 accumulation)” value worked out at 1.05 ± 0.09 nM in data set [10] (setting [23]); 1.34 ± 0.15 nM in data set [12] (setting [23]); 2.50 ± 0.27 nM in data set [12] (vindesine, DMSO (no antagonist)).
